Results reported in patent US11053204B2, “Pyrimidinyloxy benzene derivatives as herbicides” (FMC Corporation, priority 2015, dated 2021).

Legend:
Format in all cases: in vivo
[1] = test system: morningglory (Ipomoea coccinea); test: Test C postemergence, plant response rating; conditions: for Morningglory plant response rating: scale 0 to 100 (0 no effect, 100 complete control)
In short: (§1)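 After sowing in loam–sand blend or silt loam, pots were sprayed preemergence; separately grown 1- to 4-leaf plants were sprayed postemergence. Following 13 to 15 d under greenhouse conditions, injury was rated visually on a 0 to 100 scale.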

[2] = test system: velvetleaf (Abutilon theophrasti); test: Test C postemergence, plant response rating; conditions: for Velvetleaf plant response rating: 125 g ai/ha, scale 0 to 100 (0 no effect, 100 complete control)
In short: as §1

[3] = test system: kochia (Kochia scoparia); test: Test C postemergence, plant response rating; conditions: for Kochia plant response rating: scale 0 to 100 (0 no effect, 100 complete control)
In short: as §1

[4] = test system: ragweed (common ragweed, Ambrosia elatior); test: Test C postemergence, plant response rating; conditions: for Ragweed plant response rating: scale 0 to 100 (0 no effect, 100 complete control)
In short: as §1

[5] = test system: oilseed rape (Brassica napus); test: Test C postemergence, plant response rating; conditions: for Oilseed Rape plant response rating: scale 0 to 100 (0 no effect, 100 complete control)
In short: as §1

[6] = test system: waterhemp (common waterhemp, Amaranthus rudis); test: Test C postemergence, plant response rating; conditions: for Waterhemp plant response rating: 125 g ai/ha, scale 0 to 100 (0 no effect, 100 complete control)
In short: as §1

[7] = test system: ducksalad (Heteranthera limosa); test: Test B flooded paddy test, plant response rating; conditions: 250 g ai/ha; Flood; scale of 0 to 100 where 0 is no effect and 100 is complete control; 13 to 15 days
In short: (§2)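 Flooded 3 cm over soil; compound into paddy water; depth kept constant. Greenhouse 13–15 d.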

[8] = test system: barnyardgrass (Echinochloa crus-galli); test: Test B flooded paddy test, plant response rating; conditions: 250 g ai/ha; Flood; scale of 0 to 100 where 0 is no effect and 100 is complete control; 13 to 15 days
In short: as §2

[9] = test system: sedge, umbrella (small-flower umbrella sedge, Cyperus difformis); test: Test B flooded paddy test, plant response rating; conditions: 250 g ai/ha; Flood; scale of 0 to 100 where 0 is no effect and 100 is complete control; 13 to 15 days
In short: as §2

[10] = test system: rice (Oryza sativa); test: Test B flooded paddy test, plant response rating; conditions: 250 g ai/ha; Flood; scale of 0 to 100 where 0 is no effect and 100 is complete control; 13 to 15 days
In short: as §2

[11] = test system: giant foxtail (Setaria faberii); test: Test A postemergence, visual injury rating
In short: (§3)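 Visual 0–100 rating (100 = complete control) taken about 10 d post-treatment relative to untreated checks. Preemergence: directed soil spray on sown loam/sand pots. Postemergence: seedlings 2–10 cm, 1–2 leaf. Non-phytotoxic solvent formulation with surfactant.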

[12] = test system: wheat (Triticum aestivum); test: Test A postemergence, visual injury rating
In short: as §3

[13] = test system: kochia (Kochia scoparia); test: Test A postemergence, visual injury rating
In short: as §3

[14] = test system: pigweed (Amaranthus retroflexus); test: Test A postemergence, visual injury rating
In short: as §3

[15] = test system: ragweed (common ragweed, Ambrosia elatior); test: Test A postemergence, visual injury rating
In short: as §3

[16] = test system: corn (Zea mays); test: Test A postemergence, visual injury rating
In short: as §3

[17] = test system: Italian ryegrass (Lolium multiflorum); test: Test A postemergence, visual injury rating
In short: as §3

[18] = 31 g ai/ha, 0 to 100 scale, 0 is no effect, 100 is complete control, approximately 10 days
[19] = 125 g ai/ha, 0 is no effect, 100 is complete control
[20] = 125 g ai/ha, 0 to 100 scale, 0 is no effect, 100 is complete control, approximately 10 days
[21] = 500 g ai/ha, 0 is no effect, 100 is complete control
[22] = 31 g ai/ha, 0 to 100 scale (0 no effect, 100 complete control)

SMILES	Plant response rating, Morningglory ([1]; 16 g ai/ha, scale of 0 to 100)	Plant response rating, Morningglory ([1]; 31 g ai/ha, scale 0 to 100)	Morningglory plant response rating ([1]; 62 g ai/ha)	Morningglory plant response rating ([1]; 125 g ai/ha)	Plant response rating, Velvetleaf ([2]; 16 g ai/ha, scale of 0 to 100)	Plant response rating, Velvetleaf ([2]; 31 g ai/ha, scale 0 to 100)	Velvetleaf plant response rating [2]	Plant response rating, Kochia ([3]; 16 g ai/ha, scale of 0 to 100)	Plant response rating, Kochia ([3]; 31 g ai/ha, scale 0 to 100)	Kochia plant response rating ([3]; 62 g ai/ha)	Kochia plant response rating ([3]; 125 g ai/ha)	Plant response rating, Ragweed ([4]; 16 g ai/ha, scale of 0 to 100)	Plant response rating, Ragweed ([4]; 31 g ai/ha, scale 0 to 100)	Ragweed plant response rating ([4]; 62 g ai/ha)	Ragweed plant response rating ([4]; 125 g ai/ha)	Plant response rating, Oilseed Rape ([5]; 16 g ai/ha, scale of 0 to 100)	Plant response rating, Oilseed Rape ([5]; 31 g ai/ha, scale 0 to 100)	Oilseed Rape plant response rating ([5]; 62 g ai/ha)	Oilseed Rape plant response rating ([5]; 125 g ai/ha)	Plant response rating, Waterhemp ([6]; 16 g ai/ha, scale of 0 to 100)	other results
N#Cc1cccc(Oc2ncc(Cl)cn2)c1COCCC(F)(F)F [Compound 80]	25	35	55	60	30	35	55	55	75	80	80	5	10	15	35	50	60	65	70	80	Plant response rating, Waterhemp ([6]; 31 g ai/ha, scale 0 to 100): 80; Waterhemp plant response rating [6]: 90; Plant response rating, Ducksalad [7]: 100; Plant response rating, Barnyardgrass [8]: 75; Plant response rating, Sedge, Umbrella [9]: 100; Plant response rating, Rice [10]: 55; Foxtail, Giant plant response rating [11, 18]: 30; Foxtail, Giant plant response rating (0 to 100 scale) [11, 19]: 90; Wheat plant response rating [12, 18]: 0; Wheat plant response rating [12, 20]: 40; Kochia plant response rating [13, 18]: 50; Kochia plant response rating [13, 20]: 70; Pigweed plant response rating [14, 18]: 80; Pigweed plant response rating [14, 20]: 100; Ragweed plant response rating [15, 18]: 10; Ragweed plant response rating [15, 20]: 30; Corn plant response rating [16, 18]: 10; Corn plant response rating (0 to 100 scale) [16, 19]: 60; Ryegrass, Italian plant response rating [17, 18]: 0; Ryegrass, Italian plant response rating [17, 20]: 50
CCCCC(=O)c1c(Br)cccc1Oc1ncc(Cl)cn1 [Compound 79]	10	20	30	30	30	75	90	75	80	90	98	30	20	75	65	80	98	98	100	95	Plant response rating, Waterhemp ([6]; 31 g ai/ha, scale 0 to 100): 95; Waterhemp plant response rating [6]: 98; Plant response rating, Ducksalad [7]: 90; Plant response rating, Barnyardgrass [8]: 60; Plant response rating, Sedge, Umbrella [9]: 100; Plant response rating, Rice [10]: 45; Foxtail, Giant plant response rating (0 to 100 scale) [11, 19]: 80; Foxtail, Giant plant response rating (0 to 100 scale) [11, 21]: 80; Wheat plant response rating [12, 20]: 20; Wheat plant response rating (0 to 100 scale) [12, 21]: 30; Kochia plant response rating [13, 20]: 100; Kochia plant response rating (0 to 100 scale) [13, 21]: 100; Pigweed plant response rating [14, 20]: 100; Pigweed plant response rating (0 to 100 scale) [14, 21]: 100; Ragweed plant response rating [15, 20]: 30; Ragweed plant response rating (0 to 100 scale) [15, 21]: 40; Corn plant response rating (0 to 100 scale) [16, 19]: 80; Corn plant response rating (0 to 100 scale) [16, 21]: 90; Ryegrass, Italian plant response rating [17, 20]: 90; Ryegrass, Italian plant response rating (0 to 100 scale) [17, 21]: 90
FC(F)(F)CCCCc1c(Br)cccc1Oc1ncc(Cl)cn1 [Compound 138]	10	55	65	65	10	35	75	75	85	95	98	0	30	35	75	70	85	95	100	98	Plant response rating, Waterhemp ([6]; 31 g ai/ha, scale 0 to 100): 98; Waterhemp plant response rating [6]: 100; Plant response rating, Ducksalad [7]: 100; Plant response rating, Barnyardgrass [8]: 50; Plant response rating, Sedge, Umbrella [9]: 85; Plant response rating, Rice [10]: 45; Foxtail, Giant plant response rating [11, 22]: 90; Foxtail, Giant plant response rating [11, 20]: 90; Wheat plant response rating [12, 22]: 20; Wheat plant response rating [12, 20]: 40; Kochia plant response rating [13, 22]: 90; Kochia plant response rating [13, 20]: 100; Pigweed plant response rating [14, 22]: 100; Pigweed plant response rating [14, 20]: 100; Ragweed plant response rating [15, 22]: 30; Ragweed plant response rating [15, 20]: 60; Corn plant response rating [16, 22]: 30; Corn plant response rating [16, 20]: 60; Ryegrass, Italian plant response rating [17, 22]: 30; Ryegrass, Italian plant response rating [17, 20]: 100
